{"source": "paper PMC9500072", "about": "“Topical application of an irreversible small molecule inhibitor of lysyl oxidases ameliorates skin scarring and fibrosis” (Nature Communications, 2022)", "key": {"Phorbol Ester": {"test_system": "Phorbol Ester", "experiment": "Eurofins panel 264500", "assay_type": "binding, mouse", "conditions": "10 µM"}, "primary scar fibroblasts": {"test_system": "primary scar fibroblasts", "experiment": "Scar-in-a-jar collagen I immunofluorescence (deposition, coherency)", "assay_type": "cell-based, human", "protocol": "Fibrillar collagen I deposition was measured using confocal image analysis (Fig. 4f–k). […] Furthermore, coherency analysis[18] was used to determine collagen alignment. This analysis specifically analyses the alignment of collagen fibers, with more alignment increasing the score and more random distribution provided a lower score. In scar tissue scores are higher as fibers are densely parallel aligned in contrast to normal skin[18].\nAn experimental ‘Scar-in-a-jar’ protocol developed by Chen and Raghunath[36] was followed for quantitation of collagen per cell and to measure the orientation of collagen under fibrotic conditions in vitro. […] The images then further analyzed for collagen coherency measurements using ‘Fiji is just image j’s’ (FIJI) orientation J application as previously reported[18],[37]. For quantitation of collagen per cell, an image of whole chamber slide was captured using fluorescence microscope (Nikon inverted microscope). The 488 nm green and Hoechst stained blue images were collected, and analyzed using NIS-Elements software (Nikon, Japan). The six ROIs were selected from each image and the binary thresholds were recorded for each corresponding image. […]"}, "Prostanoid EP4": {"molecular_target": "Prostanoid EP4 (Homo sapiens, UniProt P35408)", "experiment": "Eurofins panel 268420", "assay_type": "binding"}, "[1]": {"molecular_target": "Nicotinic Acetylcholine α1, Bungarotoxin (Homo sapiens, UniProt P02708+P07510+Q07001)", "experiment": "Eurofins panel 258700", "assay_type": "binding", "conditions": "read-out: % Inh."}, "Dopamine D4.2": {"molecular_target": "Dopamine D4.2 (Homo sapiens, UniProt P21917, DEL265-296)", "experiment": "Eurofins panel 219900", "assay_type": "binding"}, "Glutamate, NMDA, Glycine": {"test_system": "Glutamate, NMDA, Glycine", "experiment": "Eurofins panel 232910", "assay_type": "binding, rat", "conditions": "10 µM"}, "[2]": {"test_system": "Glutamate, NMDA, Phencyclidine", "experiment": "Eurofins panel 233000", "assay_type": "binding, rat", "conditions": "10 µM"}, "Purinergic P2Y": {"test_system": "Purinergic P2Y", "experiment": "Eurofins panel 268810", "assay_type": "binding, rat", "conditions": "10 µM"}, "[3]": {"experiment": "LeadProfilingScreen, Eurofins CEREP Panlabs, 68 assays", "assay_type": "binding", "conditions": "test concentration 10 µM"}, "Estrogen ERα": {"molecular_target": "Estrogen ERα (Homo sapiens, UniProt P03372)", "sequence (P03372 whole entry)": "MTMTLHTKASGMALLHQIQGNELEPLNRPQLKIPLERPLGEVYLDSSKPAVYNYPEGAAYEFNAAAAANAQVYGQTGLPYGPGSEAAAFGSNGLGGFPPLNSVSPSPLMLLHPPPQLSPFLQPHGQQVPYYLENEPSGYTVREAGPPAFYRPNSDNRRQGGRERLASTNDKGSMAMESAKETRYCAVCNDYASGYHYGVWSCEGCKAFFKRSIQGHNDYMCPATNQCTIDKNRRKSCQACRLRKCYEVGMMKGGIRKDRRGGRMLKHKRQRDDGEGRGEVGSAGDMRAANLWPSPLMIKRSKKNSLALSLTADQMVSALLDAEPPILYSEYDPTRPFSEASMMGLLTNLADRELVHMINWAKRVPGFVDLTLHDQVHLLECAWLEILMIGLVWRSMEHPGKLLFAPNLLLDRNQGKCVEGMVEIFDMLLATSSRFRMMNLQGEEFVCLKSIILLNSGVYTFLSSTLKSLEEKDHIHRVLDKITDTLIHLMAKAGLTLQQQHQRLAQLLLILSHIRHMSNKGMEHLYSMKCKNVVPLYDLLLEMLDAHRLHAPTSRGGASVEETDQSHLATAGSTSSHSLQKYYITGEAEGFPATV", "experiment": "Eurofins panel 226010", "assay_type": "binding"}, "Purinergic P2X": {"test_system": "Purinergic P2X", "experiment": "Eurofins panel 268700", "assay_type": "binding, rabbit", "conditions": "10 µM"}, "fibroblasts": {"test_system": "fibroblasts", "experiment": "RNASeq transcriptome analysis, fibroblasts", "assay_type": "cell-based, human", "conditions": "24 hrs of treatment"}, "Calcium Channel N-Type": {"molecular_target": "Calcium Channel N-Type (Rattus norvegicus, UniProt Q02294)", "sequence (Q02294 whole entry)": "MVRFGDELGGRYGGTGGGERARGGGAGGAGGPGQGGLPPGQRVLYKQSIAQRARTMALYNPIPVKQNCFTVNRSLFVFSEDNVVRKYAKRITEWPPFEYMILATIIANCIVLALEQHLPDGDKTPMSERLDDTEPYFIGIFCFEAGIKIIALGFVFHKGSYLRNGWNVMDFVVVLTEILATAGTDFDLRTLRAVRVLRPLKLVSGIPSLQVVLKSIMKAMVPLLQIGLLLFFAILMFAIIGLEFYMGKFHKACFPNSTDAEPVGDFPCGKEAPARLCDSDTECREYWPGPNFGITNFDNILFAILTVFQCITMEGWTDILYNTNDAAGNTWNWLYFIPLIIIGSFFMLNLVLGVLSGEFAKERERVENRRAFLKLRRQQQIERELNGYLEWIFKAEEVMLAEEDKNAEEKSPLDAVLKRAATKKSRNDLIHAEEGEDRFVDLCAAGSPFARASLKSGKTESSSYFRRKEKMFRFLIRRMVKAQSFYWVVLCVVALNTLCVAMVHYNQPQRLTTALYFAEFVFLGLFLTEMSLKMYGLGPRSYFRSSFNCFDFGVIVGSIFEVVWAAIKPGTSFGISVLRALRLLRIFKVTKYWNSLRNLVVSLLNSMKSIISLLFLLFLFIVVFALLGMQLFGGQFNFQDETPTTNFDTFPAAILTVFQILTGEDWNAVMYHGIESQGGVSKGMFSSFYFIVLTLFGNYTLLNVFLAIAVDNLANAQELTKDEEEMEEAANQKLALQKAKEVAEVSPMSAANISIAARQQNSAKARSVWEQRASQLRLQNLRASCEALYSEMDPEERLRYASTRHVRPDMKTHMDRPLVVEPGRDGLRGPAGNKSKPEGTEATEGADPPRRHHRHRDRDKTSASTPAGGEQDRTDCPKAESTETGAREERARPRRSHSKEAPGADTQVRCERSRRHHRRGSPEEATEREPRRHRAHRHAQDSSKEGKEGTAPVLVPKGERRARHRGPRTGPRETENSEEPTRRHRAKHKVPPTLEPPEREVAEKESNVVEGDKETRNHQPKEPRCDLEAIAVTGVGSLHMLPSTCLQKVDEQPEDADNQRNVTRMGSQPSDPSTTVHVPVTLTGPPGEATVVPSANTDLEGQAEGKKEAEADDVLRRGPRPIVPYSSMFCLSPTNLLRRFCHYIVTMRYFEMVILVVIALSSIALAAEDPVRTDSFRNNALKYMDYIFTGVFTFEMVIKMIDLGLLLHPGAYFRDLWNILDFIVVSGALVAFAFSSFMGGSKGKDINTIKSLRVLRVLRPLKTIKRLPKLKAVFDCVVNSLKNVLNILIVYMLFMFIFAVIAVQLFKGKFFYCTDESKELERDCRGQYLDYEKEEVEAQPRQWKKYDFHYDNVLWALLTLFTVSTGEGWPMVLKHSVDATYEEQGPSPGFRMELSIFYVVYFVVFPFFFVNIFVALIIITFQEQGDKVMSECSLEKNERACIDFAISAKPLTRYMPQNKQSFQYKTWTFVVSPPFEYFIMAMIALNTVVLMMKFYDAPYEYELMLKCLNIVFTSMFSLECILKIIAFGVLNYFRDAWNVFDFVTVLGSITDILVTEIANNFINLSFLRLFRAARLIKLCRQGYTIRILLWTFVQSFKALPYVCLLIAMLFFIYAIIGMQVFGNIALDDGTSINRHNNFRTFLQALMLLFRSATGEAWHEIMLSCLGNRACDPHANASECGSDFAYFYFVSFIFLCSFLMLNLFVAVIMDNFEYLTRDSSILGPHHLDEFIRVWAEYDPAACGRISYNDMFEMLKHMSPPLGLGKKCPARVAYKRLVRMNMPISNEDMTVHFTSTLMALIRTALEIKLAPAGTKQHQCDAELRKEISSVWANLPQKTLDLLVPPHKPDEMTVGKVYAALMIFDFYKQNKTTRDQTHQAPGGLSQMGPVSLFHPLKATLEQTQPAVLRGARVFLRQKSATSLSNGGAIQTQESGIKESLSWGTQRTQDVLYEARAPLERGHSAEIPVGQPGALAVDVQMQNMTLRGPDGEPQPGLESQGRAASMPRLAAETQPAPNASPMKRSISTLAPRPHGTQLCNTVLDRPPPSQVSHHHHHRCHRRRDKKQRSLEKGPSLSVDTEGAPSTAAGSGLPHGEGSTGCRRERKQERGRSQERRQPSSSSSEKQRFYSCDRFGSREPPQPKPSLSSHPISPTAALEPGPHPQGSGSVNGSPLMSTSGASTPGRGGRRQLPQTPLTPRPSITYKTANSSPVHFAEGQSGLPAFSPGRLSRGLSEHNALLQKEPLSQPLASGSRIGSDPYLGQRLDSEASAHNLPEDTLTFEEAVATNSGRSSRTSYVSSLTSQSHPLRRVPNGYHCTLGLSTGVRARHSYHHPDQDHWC", "experiment": "Eurofins panel 216000", "assay_type": "binding"}, "Cyclooxygenase COX-2": {"molecular_target": "Cyclooxygenase COX-2 (Homo sapiens, UniProt P35354)", "experiment": "Eurofins panel 118010", "assay_type": "biochemical"}, "Cyclooxygenase COX-1": {"molecular_target": "Cyclooxygenase COX-1 (Homo sapiens, UniProt P23219)", "experiment": "Eurofins panel 116020", "assay_type": "biochemical"}, "PAMPA permeability": {"experiment": "PAMPA permeability", "assay_type": "in vitro ADME"}, "Caco-2 permeability": {"experiment": "Caco-2 permeability", "assay_type": "in vitro ADME", "conditions": "human, Caco-2", "protocol": "(§1) The penetration of PXS-6302 across a monolayer of cells was tested using Caco-2 or MDCKII cells transfected with P-glycoprotein (Pgp)."}, "Caco-2 cells": {"test_system": "Caco-2 cells", "experiment": "Caco-2 permeability", "assay_type": "in vitro ADME", "protocol": "as §1"}, "lysyl oxidases": {"test_system": "lysyl oxidases", "set-up": "method as in ACTRN1262100322831", "conditions": "ref ACTRN1262100322831; cited from earlier work"}, "[4]": {"molecular_target": "Protein Tyrosine Kinase, LCK (Homo sapiens, UniProt P06239)", "sequence (P06239 whole entry)": "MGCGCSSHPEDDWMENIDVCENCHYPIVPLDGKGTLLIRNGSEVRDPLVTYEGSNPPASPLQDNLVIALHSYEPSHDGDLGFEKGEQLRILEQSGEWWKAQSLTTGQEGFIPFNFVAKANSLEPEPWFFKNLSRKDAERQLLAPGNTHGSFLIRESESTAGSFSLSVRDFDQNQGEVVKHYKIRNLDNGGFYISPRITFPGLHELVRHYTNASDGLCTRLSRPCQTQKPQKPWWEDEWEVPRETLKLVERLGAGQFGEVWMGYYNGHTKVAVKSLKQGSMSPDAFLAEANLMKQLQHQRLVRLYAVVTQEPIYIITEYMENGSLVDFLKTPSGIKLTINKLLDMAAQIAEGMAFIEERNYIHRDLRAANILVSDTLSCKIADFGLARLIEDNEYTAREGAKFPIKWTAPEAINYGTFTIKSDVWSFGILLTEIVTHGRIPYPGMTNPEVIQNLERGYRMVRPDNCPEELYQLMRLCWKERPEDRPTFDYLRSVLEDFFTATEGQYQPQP", "experiment": "Eurofins panel 176020", "assay_type": "biochemical"}, "[5]": {"test_system": "MDCKII cells transfected with P-glycoprotein (Pgp)", "experiment": "MDCKII-Pgp permeability", "assay_type": "in vitro ADME", "conditions": "unaffected by the presence of the Pgp-inhibitor", "protocol": "as §1"}, "[6]": {"molecular_target": "Serotonin (5-Hydroxytryptamine) 5-HT1B (Homo sapiens, UniProt P28222)", "sequence (P28222 whole entry)": "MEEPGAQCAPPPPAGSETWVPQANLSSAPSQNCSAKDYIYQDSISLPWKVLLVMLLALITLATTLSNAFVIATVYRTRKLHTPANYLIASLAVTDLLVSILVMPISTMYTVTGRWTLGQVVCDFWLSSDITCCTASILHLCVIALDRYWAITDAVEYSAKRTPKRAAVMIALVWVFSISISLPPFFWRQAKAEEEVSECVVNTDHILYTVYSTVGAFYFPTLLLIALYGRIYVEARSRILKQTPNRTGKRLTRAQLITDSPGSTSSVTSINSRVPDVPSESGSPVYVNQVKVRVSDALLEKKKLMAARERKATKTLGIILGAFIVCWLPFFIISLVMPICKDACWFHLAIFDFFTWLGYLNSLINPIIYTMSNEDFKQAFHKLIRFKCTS", "experiment": "Eurofins panel 271230", "assay_type": "binding"}, "[7]": {"molecular_target": "Nicotinic Acetylcholine α1β2, Cytisine (Homo sapiens, UniProt P17787+P43681)", "sequence (P43681 27-627)": "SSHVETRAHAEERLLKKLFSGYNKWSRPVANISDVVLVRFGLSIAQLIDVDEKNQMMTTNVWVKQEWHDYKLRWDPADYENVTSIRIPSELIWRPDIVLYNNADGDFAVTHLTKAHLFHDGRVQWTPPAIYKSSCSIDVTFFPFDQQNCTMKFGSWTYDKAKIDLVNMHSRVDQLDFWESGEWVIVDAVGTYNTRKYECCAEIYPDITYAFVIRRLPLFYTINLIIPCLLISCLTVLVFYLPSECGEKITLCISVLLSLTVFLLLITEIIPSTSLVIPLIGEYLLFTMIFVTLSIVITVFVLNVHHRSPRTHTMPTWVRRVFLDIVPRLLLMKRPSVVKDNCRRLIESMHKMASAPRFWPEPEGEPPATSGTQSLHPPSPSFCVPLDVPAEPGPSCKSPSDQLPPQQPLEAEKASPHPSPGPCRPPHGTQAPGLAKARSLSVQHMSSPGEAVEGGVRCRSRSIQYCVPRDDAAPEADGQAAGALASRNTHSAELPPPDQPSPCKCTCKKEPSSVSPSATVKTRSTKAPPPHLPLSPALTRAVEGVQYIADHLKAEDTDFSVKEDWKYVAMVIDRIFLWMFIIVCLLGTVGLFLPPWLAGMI", "sequence (P17787 26-502)": "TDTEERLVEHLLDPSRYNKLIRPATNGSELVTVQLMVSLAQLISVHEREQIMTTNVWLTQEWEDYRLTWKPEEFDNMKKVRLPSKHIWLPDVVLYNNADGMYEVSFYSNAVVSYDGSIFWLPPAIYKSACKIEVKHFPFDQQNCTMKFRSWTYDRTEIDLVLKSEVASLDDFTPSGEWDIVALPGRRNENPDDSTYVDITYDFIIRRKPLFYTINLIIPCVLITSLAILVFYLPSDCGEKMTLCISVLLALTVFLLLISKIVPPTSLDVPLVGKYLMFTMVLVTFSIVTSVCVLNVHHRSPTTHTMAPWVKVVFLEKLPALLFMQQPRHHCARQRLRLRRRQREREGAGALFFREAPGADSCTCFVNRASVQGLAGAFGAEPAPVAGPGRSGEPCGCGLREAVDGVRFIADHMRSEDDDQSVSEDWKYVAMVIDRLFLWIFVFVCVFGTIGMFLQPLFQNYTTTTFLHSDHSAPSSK", "experiment": "Eurofins panel 299031", "assay_type": "binding"}}}
{"smiles": "NC/C=C(\\F)CS(=O)(=O)c1ccccc1", "note": "[PXS-4787]", "values": [{"measurement": "% Inh.", "setting": "Phorbol Ester", "result": 5, "unit": "%"}, {"measurement": "deposited fibrillar collagen I", "setting": "primary scar fibroblasts; 10 µM vs control and 1 µM", "result": "significantly reduced"}, {"measurement": "collagen I coherency", "setting": "primary scar fibroblasts; 1 and 10 µM vs control", "result": "significantly reduced coherency"}, {"measurement": "inhibition at 10 µM", "setting": "Prostanoid EP4", "result": -2, "unit": "%"}, {"measurement": "inhibition at 10 µM", "setting": "[1]", "result": -3, "unit": "%"}, {"measurement": "inhibition at 10 µM", "setting": "Dopamine D4.2", "result": 1, "unit": "%"}, {"measurement": "% Inh.", "setting": "Glutamate, NMDA, Glycine", "result": 5, "unit": "%"}, {"measurement": "% Inh.", "setting": "[2]", "result": 8, "unit": "%"}, {"measurement": "% Inh.", "setting": "Purinergic P2Y", "result": 2, "unit": "%"}, {"measurement": "profile in broad panel of macromolecular targets", "setting": "[3]", "result": "clean"}, {"measurement": "inhibition at 10 µM", "setting": "Estrogen ERα", "result": 3, "unit": "%"}, {"measurement": "% Inh.", "setting": "Purinergic P2X", "result": 8, "unit": "%"}, {"measurement": "Log2 fold change ACTA2-AS1", "setting": "fibroblasts", "result": -3.268}, {"measurement": "Log2 fold change GAL", "setting": "fibroblasts", "result": 2.787}, {"measurement": "Log2 fold change ICOSLG", "setting": "fibroblasts", "result": 1.738}, {"measurement": "Log2 fold change TMEM88", "setting": "fibroblasts", "result": 2.374}, {"measurement": "inhibition at 10 µM", "setting": "Calcium Channel N-Type", "result": 0, "unit": "%"}]}
{"smiles": "NC/C=C(\\F)C(F)(F)S(=O)(=O)c1ccccc1", "note": "[PXS-6302]", "values": [{"measurement": "inhibition at 30 µM", "setting": "Cyclooxygenase COX-2", "result": 21, "unit": "%"}, {"measurement": "inhibition at 30 µM", "setting": "Cyclooxygenase COX-1", "result": 36, "unit": "%"}, {"measurement": "PAMPA permeability (class in words)", "setting": "PAMPA permeability", "result": "High and high permeability"}, {"measurement": "Papp", "setting": "PAMPA permeability; GIT PAMPA at pH 7.4, read-out: PAMPA permeability, Average of P", "result": 168, "unit": "×10⁻⁶ cm/s"}, {"measurement": "efflux ratio", "setting": "Caco-2 permeability; read-out: CaCo2 efflux ratio", "result": 0.8}, {"measurement": "Papp", "setting": "Caco-2 permeability; read-out: CaCo2 permeability Papp", "result": 34, "unit": "×10⁻⁶ cm/s"}, {"measurement": "CaCo2 permeability (class in words)", "setting": "Caco-2 cells", "result": "High and high permeability"}, {"measurement": "target engagement and inhibition in phase I trial", "setting": "lysyl oxidases", "result": "strong target engagement and long-lasting inhibition"}, {"measurement": "inhibition at 30 µM", "setting": "[4]", "result": 1, "unit": "%"}, {"measurement": "MDCKII-Pgp permeability (class in words)", "setting": "[5]", "result": "high permeability"}, {"measurement": "inhibition at 30 µM", "setting": "[6]", "result": -3, "unit": "%"}, {"measurement": "inhibition at 30 µM", "setting": "[7]", "result": -2, "unit": "%"}]}
